The target of test [1] is T1, hM2 receptor (Homo sapiens, UniProt P08172).
T1 construct: expressed in transfected cells; host or cells: CHO-K1 cells
T1 sequence (P08172 1-466): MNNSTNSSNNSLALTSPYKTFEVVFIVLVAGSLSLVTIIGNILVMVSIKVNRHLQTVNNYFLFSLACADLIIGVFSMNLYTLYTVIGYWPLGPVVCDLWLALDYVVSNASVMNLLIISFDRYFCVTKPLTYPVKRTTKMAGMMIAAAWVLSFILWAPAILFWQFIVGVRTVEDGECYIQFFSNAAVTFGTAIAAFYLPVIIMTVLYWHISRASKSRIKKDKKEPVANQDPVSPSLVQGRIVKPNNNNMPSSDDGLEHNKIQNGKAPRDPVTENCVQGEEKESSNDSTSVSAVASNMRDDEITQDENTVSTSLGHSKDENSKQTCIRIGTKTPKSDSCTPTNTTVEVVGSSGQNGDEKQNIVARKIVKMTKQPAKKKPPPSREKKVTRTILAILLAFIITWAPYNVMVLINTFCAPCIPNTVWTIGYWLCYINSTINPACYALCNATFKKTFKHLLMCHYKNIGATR
Put plainly: Blockade of agonist-mediated inhibition of cAMP accumulation. It counts as cell-based. The conditions noted are these: CHO-K1 cells expressing the hM2 receptor; read-out: Ki value for blockade of oxotremorine-inhibition of forskolin-mediated cAMP accumulation. As to the method: A. Blockade of Agonist-Mediated Inhibition of cAMP Accumulation
In this assay, the functional potency of a test compound was determined by measuring the ability of the test compound to block oxotremorine-inhibition of forskolin-mediated cAMP accumulation in CHO-K1 cells expressing the hM2 receptor.
cAMP assays were performed in a radioimmunoassay format using the Flashplate Adenylyl Cyclase Activation Assay System with ^125I-cAMP (NEN SMP004B, PerkinElmer Life Sciences Inc., Boston, Mass.), according to the manufacturer's instructions.
Cells were rinsed once with dPBS and lifted with Trypsin-EDTA solution (0.05% trypsin/0.53 mM EDTA) as described in the Cell Culture and Membrane Preparation section above. […] The cell pellet was then re-suspended in 10 mL dPBS, and the cells were counted with a Coulter Z1 Dual Particle Counter (Beckman Coulter, Fullerton, Calif.). […]
Reactions were incubated for 10 minutes at 37° C. and stopped by addition of 100 μL ice-cold detection buffer. Plates were sealed, incubated overnight at room temperature and counted the next morning on a PerkinElmer TopCount liquid scintillation counter (PerkinElmer Inc., Wellesley, Mass.). The amount of cAMP produced (pmol/well) was calculated based on the counts observed for the samples and cAMP standards, as described in the manufacturer's user manual. […]
For orientation: Cyclic AMP is a second messenger, typically raised through Gs and lowered through Gi signalling.

Test [2] concerns the target T1, hM2 receptor. The test can be described thus: Blockade of agonist-mediated [35S]GTPγS binding. Type of test: biochemical. The conditions noted are these: CHO-K1 cells expressing the hM2 receptor (membranes); read-out: Ki value for blockade of oxotremorine-stimulated [35S]GTPγS binding. On the procedure: B. Blockade of Agonist-Mediated [^35 S]GTPγS Binding
In a second functional assay, the functional potency of a test compound is determined by measuring the ability of the compound to block oxotremorine-stimulated [^35S]GTPγS binding in CHO-K1 cells expressing the hM2 receptor.
At the time of use, frozen membranes were thawed and then diluted in assay buffer with a final target tissue concentration of 5-10 μg protein per well. The membranes were briefly homogenized using a Polytron PT-2100 tissue disrupter and then added to the assay plates.
The EC90 value (effective concentration for 90% maximal response) for stimulation of [^35S]GTPγS binding by the agonist oxotremorine was determined in each experiment.
The assay plates were then incubated at 37° C. for 60 minutes. The assay plates were filtered over 1% BSA-pretreated GF/B filters using a PerkinElmer 96-well harvester. The plates were rinsed with ice-cold wash buffer for 3×3 seconds and then air or vacuum dried. Microscint-20 scintillation liquid (50 μL) was added to each well, and each plate was sealed and radioactivity counted on a topcounter (PerkinElmer). Data were analyzed by nonlinear regression analysis with the GraphPad Prism Software package (GraphPad Software, Inc., San Diego, Calif.) using the non-linear regression, one-site competition equation. […]
(GTPγS resists hydrolysis and so accumulates on activated G proteins.)

What is called Ki is a dissociation constant, usually derived from enzyme kinetics or from competition with a known ligand.

With `CNCCCCCCCCN1CC[C@@H](C(C(N)=O)(c2ccccc2)c2ccccc2)C1` [compound of formula I, 2-[(S)-1-(8-methylaminooctyl)pyrrolidin-3-yl]-2,2-diphenylacetamide], the Ki in test [1] and in test [2] was under 5 nM throughout.

Values taken from patent US7524880B2, “Crystalline form of a substituted pyrrolidine compound” (Theravance, Inc., priority 2004, dated 2009).
